Experimental data published in US20110028455A1, “Indole-substituted 3-cyanopyridines As Kinase Inhibitors” (Wyeth LLC, priority 2007, published 2011).

Target: T1, human PKCθ full length enzyme (Homo sapiens, UniProt Q04759)
T1 construct: human PKCθ full length enzyme (Panvera Cat# P2996); purchased Panvera P2996
Assay: PKCθ IMAP Assay
Format: biochemical
Details: PKCθ 1 nM; ATP 6 μM; peptide 100 nM; DMSO 5%; 25 minutes at room temperature; FP readout; read-out: PKC-Theta Mean IC50
Protocol: The materials used include the following: human PKCθ full length enzyme (Panvera Cat# P2996); substrate peptide: 5FAM-RFARKGSLRQKNV-OH (Molecular Devices, RP7032); ATP (Sigma Cat # A2383); DTT (Pierce, 20291); 5× kinase reaction buffer (Molecular Devices, R7209); 5× binding buffer A (Molecular Devices, R7282), 5× binding buffer B (Molecular Devices, R7209); IMAP Beads (Molecular Devices, R7284); and 384-well plates (Corning Costar, 3710).
The reaction buffer was prepared by diluting the 5× stock reaction buffer and adding DTT to obtain a concentration of 3.0 mM. The binding buffer was prepared by diluting the 5× binding buffer A. A master mix solution was prepared using a 90% dilution of the reaction buffer containing 2×ATP (12 uM) and 2× peptide (200 nm). Compounds were diluted in DMSO to 20× of the maximum concentration for the IC50 measurement. 27 μl of the master mix solution for each IC50 curve was added to the first column in a 384-well plate and 3 μl of 20× compound in DMSO was added to each well.
The final concentration of compound was 2× and 10% DMSO. DMSO was added to the rest of the master mix to increase the concentration to 10%. 10 μl of the master mix containing 10% DMSO was added to the rest of the wells on the plate except the 2nd column. 20 μl was transferred from the first column to the 2nd column. The compounds were serially diluted in 2:1 ratio starting from the 2nd column. A 2×(2 nM) PKCθ solution was made in the reaction buffer. 10 μl of the PKCθ solution was added to every well to achieve these final concentrations: PKCθ-1 nM; ATP-6 μM; peptide-100 nM; DMSO-5%. Samples were incubated for 25 minutes at room temperature. The binding reagent was prepared by diluting the beads in 1× binding buffer to 800:1. 50 μl of the binding reagent was added to every well and incubated for 20 minutes. FP was measured using Envision2100 (PerkinElmer Life Sciences). Wells with no ATP and wells with no enzyme were used as controls.

T1 sequence (Q04759 whole entry): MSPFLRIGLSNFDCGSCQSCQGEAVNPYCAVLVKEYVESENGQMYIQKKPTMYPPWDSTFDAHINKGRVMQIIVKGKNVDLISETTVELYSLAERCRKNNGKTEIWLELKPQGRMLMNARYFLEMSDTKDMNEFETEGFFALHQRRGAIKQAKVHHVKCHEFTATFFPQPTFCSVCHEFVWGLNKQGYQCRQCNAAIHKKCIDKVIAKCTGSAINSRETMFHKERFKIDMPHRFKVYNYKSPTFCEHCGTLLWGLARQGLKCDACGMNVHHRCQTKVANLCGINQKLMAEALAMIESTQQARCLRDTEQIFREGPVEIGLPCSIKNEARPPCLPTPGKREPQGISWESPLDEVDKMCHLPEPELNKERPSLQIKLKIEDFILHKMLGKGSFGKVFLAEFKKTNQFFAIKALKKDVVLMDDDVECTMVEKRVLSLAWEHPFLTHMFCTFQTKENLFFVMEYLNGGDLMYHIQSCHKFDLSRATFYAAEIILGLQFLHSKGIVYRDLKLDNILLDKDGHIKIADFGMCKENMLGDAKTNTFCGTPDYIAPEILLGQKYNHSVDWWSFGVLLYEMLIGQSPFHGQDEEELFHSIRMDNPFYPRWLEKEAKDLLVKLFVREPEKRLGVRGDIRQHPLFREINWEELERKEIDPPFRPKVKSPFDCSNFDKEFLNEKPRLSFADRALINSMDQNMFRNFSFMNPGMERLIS

IC50 | SMILES
19 nM | Cc1ncc(C#N)c(Nc2ccc3[nH]ccc3c2C)c1-c1ccc(OCCNCCO)cc1 [Example 17, 5-(4-{2-[(2-hydroxyethyl)amino]ethoxy}phenyl)-6-methyl-4-[(4-methyl-1H-indol-5-yl)amino]nicotinonitrile]
40 nM | Cc1ncc(C#N)c(Nc2ccc3[nH]ccc3c2C)c1-c1ccc(OCCNCCCO)cc1 [Example 18, 5-(4-{2-[(3-hydroxypropyl)amino]ethoxy}phenyl)-6-methyl-4-[(4-methyl-1H-indol-5-yl)amino]nicotinonitrile]
26 nM | Cc1ncc(C#N)c(Nc2ccc3[nH]ccc3c2C)c1-c1ccc(OCCNCCN2CCCC2)cc1 [Example 21, 6-methyl-4-[(4-methyl-1H-indol-5-yl)amino]-5-(4-{2-[(2-pyrrolidin-1-ylethyl)amino]ethoxy}phenyl)nicotinonitrile]
44 nM | Cc1ncc(C#N)c(Nc2ccc3[nH]ccc3c2C)c1-c1ccc(OCCN2CCCCC2)cc1 [Example 24, 6-methyl-4-[(4-methyl-1H-indol-5-yl)amino]-5-[4-(2-piperidin-1-ylethoxy)phenyl]nicotinonitrile]
68 nM | Cc1ncc(C#N)c(Nc2ccc3[nH]ccc3c2C)c1-c1ccc(OCCN2CCC(CCO)CC2)cc1 [Example 25, 5-(4-{2-[4-(2-hydroxyethyl)piperidin-1-yl]ethoxy}phenyl)-6-methyl-4-[(4-methyl-1H-indol-5-yl)amino]nicotinonitrile]
31 nM | Cc1ncc(C#N)c(Nc2ccc3[nH]ccc3c2C)c1-c1ccc(OCCN2CCC(N3CCCC3)CC2)cc1 [Example 26, 6-methyl-4-[(4-methyl-1H-indol-5-yl)amino]-5-{4-[2-(4-pyrrolidin-1-ylpiperidin-1-yl)ethoxy]phenyl}nicotinonitrile]
30 nM | Cc1ncc(C#N)c(Nc2ccc3[nH]ccc3c2C)c1-c1ccc(OCCN2CCC(N3CCCCC3)CC2)cc1 [Example 27, 5-{4-[2-(1,4′-bipiperidin-1′-yl)ethoxy]phenyl}-6-methyl-4-[(4-methyl-1H-indol-5-yl)amino]nicotinonitrile]
28 nM | Cc1ncc(C#N)c(Nc2ccc3[nH]ccc3c2C)c1-c1ccc(OCCN2CCC(N3CCOCC3)CC2)cc1 [Example 28, 6-methyl-4-[(4-methyl-1H-indol-5-yl)amino]-5-{4-[2-(4-morpholin-4-ylpiperidin-1-yl)ethoxy]phenyl}nicotinonitrile]
42 nM | Cc1ncc(C#N)c(Nc2ccc3[nH]ccc3c2C)c1-c1ccc(OCCN2CC(C)NCC2C)cc1 (stereo not shown) [Example 31, 5-{4-[2-(2,5-dimethylpiperazin-1-yl)ethoxy]phenyl}-6-methyl-4-[(4-methyl-1H-indol-5-yl)amino]nicotinonitrile]
25 nM | Cc1ncc(C#N)c(Nc2ccc3[nH]ccc3c2C)c1-c1ccc(OCCN2CC(C)NC(C)C2)cc1 (stereo not shown) [Example 32, 5-{4-[2-(3,5-dimethylpiperazin-1-yl)ethoxy]phenyl}-6-methyl-4-[(4-methyl-1H-indol-5-yl)amino]nicotinonitrile]
14 nM | Cc1ncc(C#N)c(Nc2ccc3[nH]ccc3c2C)c1-c1ccc(OCCN2CCCNCC2)cc1 [Example 34, 5-{4-[2-(1,4-diazepan-1-yl)ethoxy]phenyl}-6-methyl-4-[(4-methyl-1H-indol-5-yl)amino]nicotinonitrile]
64 nM | Cc1ncc(C#N)c(Nc2ccc3[nH]ccc3c2C)c1-c1ccc(OCCNCc2cccnc2)cc1 [Example 41, 6-methyl-4-[(4-methyl-1H-indol-5-yl)amino]-5-(4-{2-[(pyridin-3-ylmethyl)amino]ethoxy}phenyl)nicotinonitrile]
41 nM | Cc1ncc(C#N)c(Nc2ccc3[nH]ccc3c2C)c1-c1ccc(OCCNCc2ccncc2)cc1 [Example 42, 6-methyl-4-[(4-methyl-1H-indol-5-yl)amino]-5-(4-{2-[(pyridin-4-ylmethyl)amino]ethoxy}phenyl)nicotinonitrile]
11900 nM | COc1ccc(-c2c(C)ncc(C#N)c2Nc2ccc3cc[nH]c3c2)cc1OC [Example 46, 5-(3,4-dimethoxyphenyl)-4-(1H-indol-6-ylamino)-6-methylnicotinonitrile]
556 nM | COc1ccc(-c2c(C)ncc(C#N)c2Nc2ccc3[nH]c(C)cc3c2)cc1OC [Example 48, 5-(3,4-dimethoxyphenyl)-6-methyl-4-[(2-methyl-1H-indol-5-yl)amino]nicotinonitrile]
50 nM | Cc1ncc(C#N)c(Nc2ccc3[nH]ccc3c2)c1-c1ccccc1 [Example 50, 4-(1H-indol-5-ylamino)-6-methyl-5-phenylnicotinonitrile]
31 nM | COc1ccc(-c2c(C)ncc(C#N)c2Nc2ccc3[nH]ccc3c2)cc1OC [Example 51, 5-(3,4-dimethoxyphenyl)-4-(1H-indol-5-ylamino)-6-methylnicotinonitrile]
250 nM | COc1ccccc1-c1c(C)ncc(C#N)c1Nc1ccc2[nH]ccc2c1 [Example 52, 4-(1H-indol-5-ylamino)-5-(2-methoxyphenyl)-6-methylnicotinonitrile]
34 nM | COc1cccc(-c2c(C)ncc(C#N)c2Nc2ccc3[nH]ccc3c2)c1 [Example 53, 4-(1H-indol-5-ylamino)-5-(3-methoxyphenyl)-6-methylnicotinonitrile]
41 nM | COc1ccc(-c2c(C)ncc(C#N)c2Nc2ccc3[nH]ccc3c2)cc1 [Example 54, 4-(1H-indol-5-ylamino)-5-(4-methoxyphenyl)-6-methylnicotinonitrile]
26 nM | Cc1ncc(C#N)c(Nc2ccc3[nH]ccc3c2)c1-c1cc2ccccc2o1 [Example 55, 5-(1-benzofuran-2-yl)-4-(1H-indol-5-ylamino)-6-methylnicotinonitrile]
137 nM | Cc1ncc(C#N)c(Nc2ccc3[nH]ccc3c2)c1-c1cc2ccccc2s1 [Example 56, 5-(1-benzothiophen-2-yl)-4-(1H-indol-5-ylamino)-6-methylnicotinonitrile]
87 nM | Cc1ncc(C#N)c(Nc2ccc3[nH]ccc3c2)c1-c1cccc(CN(C)C)c1 [Example 57, 5-{3-[(dimethylamino)methyl]phenyl}-4-(1H-indol-5-ylamino)-6-methylnicotinonitrile]
191 nM | CCc1ncc(C#N)c(Nc2ccc3[nH]ccc3c2C)c1-c1ccc(OC)c(OC)c1 [Example 61, 5-(3,4-dimethoxyphenyl)-6-ethyl-4-[(4-methyl-1H-indol-5-yl)amino]nicotinonitrile]
84 nM | COc1ccc(-c2c(C)ncc(C#N)c2Nc2cc(Cl)c3[nH]ccc3c2C)cc1OC [Example 64, 4-[(7-chloro-4-methyl-1H-indol-5-yl)amino]-5-(3,4-dimethoxyphenyl)-6-methylnicotinonitrile]
80 nM | Cc1ncc(C#N)c(Nc2ccc3[nH]ccc3c2)c1-c1cccs1 [Example 65, 4-(1H-indol-5-ylamino)-6-methyl-5-(2-thienyl)nicotinonitrile]
42 nM | Cc1ncc(C#N)c(Nc2ccc3[nH]ccc3c2C)c1-c1cccc(CN(C)C)c1 [Example 66, 5-{3-[(dimethylamino)methyl]phenyl}-6-methyl-4-[(4-methyl-1H-indol-5-yl)amino]pyridine-3-carbonitrile]
21 nM | Cc1ncc(C#N)c(Nc2ccc3[nH]ccc3c2C)c1-c1ccc(C=O)o1 [Example 67, 5-(5-formylfuran-2-yl)-6-methyl-4-[(4-methyl-1H-indol-5-yl)amino]pyridine-3-carbonitrile]
